# Test results as given in patent US20150307491A1, “SUBSTITUTED PYRIDOPYRAZINES AS SYK INHIBITORS” (HUTCHISON MEDIPHARMA LIMITED, priority 2012, published 2015).
# Tested on: RBL-2H3 cells
# Test: IgE-induced Beta-hexosaminidase secretion in RBL-2H3 cells
# Format: cell-based
# Details: Rattus norvegicus; RBL-2H3 cells sensitized with SPE-7, stimulated with DNP-BSA
# Protocol: For the determination of IgE-induced Beta-hexosaminidase secretion, RBL-2H3 cells (SIBS) are seeded in 96 well plates at 4×10^4 cells per well and incubated in MEM media with 15% FBS and Glutamine ([…]) for 4 hours and sensitized with 0.5 ug/ml of SPE-7 overnight. Cells are washed 3 times with Tyrode's buffer and incubated in the presence or absence of various concentrations of the testing compound for 20 min at 37° C., 5% CO2. Cells are stimulated by adding 10 μL of DNP-BSA solution (150 ng/mL) to each well and incubating for 45 minutes at 37° C., 5% CO2. Then, 45 μL of the supernatant is taken and incubated with 100 μL of 1 mM 4-Nitrophenyl N-acetyl-β-D-glucosaminide (Sigma, Cat. No. N9376), which is diluted in 0.05 M citrate buffer (pH 4.5), for 1.5 hr at 37° C. The reactions are quenched by adding 185 μL of 0.05 M sodium carbonate buffer (pH 10.0). Plates are read at 405 nm on Multiskan (MK 3).
row,Structure (SMILES),IC50
1,CN(C)c1ccc(-c2cc3nccnc3c(OC[C@@H]3CN(C(=O)C4CC(F)(F)C4)CCO3)n2)cc1 [Compound 71],100 to 1000 nM
2,COC1CCN(c2ccc(-c3cc4nccnc4c(OC[C@@H]4CN(S(C)(=O)=O)CCO4)n3)cc2)CC1 [Compound 31],1 to 100 nM
3,CC(C)(O)C1CCN(c2ccc(-c3cc4nccnc4c(OC[C@@H]4CN(S(C)(=O)=O)CCO4)n3)cc2)CC1 [Compound 22],1 to 100 nM
4,CS(=O)(=O)N1CCO[C@H](COc2nc(-c3ccc4ncccc4c3)cc3nccnc23)C1 [Compound 111],100 to 1000 nM
5,C[C@@H]1CN(c2ccc(-c3cc4nccnc4c(OC[C@@H]4CN(S(C)(=O)=O)CCO4)n3)cc2)C[C@H](C)O1 [Compound 19],100 to 1000 nM
6,CN(C)c1ccc(-c2cc3nccnc3c(OC3CCCOC3)n2)cc1 (stereo not shown) [Compound 127],1 to 100 nM
7,CN1CCN(c2ccc(-c3cc4nccnc4c(OC[C@@H]4CN(S(N)(=O)=O)CCO4)n3)cc2)CC1 [Compound 64],100 to 1000 nM
8,CC1CN(c2ccc(-c3cc4nccnc4c(OC[C@@H]4CN(S(C)(=O)=O)CCO4)n3)cc2)CCO1 (stereo partly shown) [Compound 18],1 to 100 nM
9,NS(=O)(=O)N1CCO[C@H](COc2nc(-c3ccc(N4CCCCC4)cc3)cc3nccnc23)C1 [Compound 28],100 to 1000 nM
10,Cn1ncc2cc(-c3cc4nccnc4c(OC[C@@H]4CN(S(C)(=O)=O)CCO4)n3)ccc21 [Compound 105],1 to 100 nM
11,CS(=O)(=O)N1CCO[C@H](COc2nc(-c3ccc(N4CCC(F)(F)CC4)cc3)cc3nccnc23)C1 [Compound 20],1 to 100 nM
12,CN(C)c1ccc(-c2cc3nccnc3c(OC[C@@H]3CN(C(=O)CCC#N)CCO3)n2)cc1 [Compound 77],100 to 1000 nM
13,CN(C)c1ccc(-c2cc3nccnc3c(OC[C@@H]3CN(S(=O)(=O)c4cccnc4)CCO3)n2)cc1 [Compound 92],1 to 100 nM
14,COCCN1CCC(c2ccc(-c3cc4nccnc4c(OC[C@@H]4CN(S(C)(=O)=O)CCO4)n3)cc2)CC1 [Compound 59],100 to 1000 nM
15,CCN1CCN(c2ccc(-c3cc4nccnc4c(OC[C@@H]4CN(C(=O)C(F)F)CCO4)n3)cc2)CC1 [Compound 17],1 to 100 nM
16,Cn1ccc2cc(-c3cc4nccnc4c(OC[C@@H]4CN(S(C)(=O)=O)CCO4)n3)ccc21 [Compound 39],1 to 100 nM
17,CS(=O)(=O)N1CCC(c2ccc(-c3cc4nccnc4c(O[C@@H]4CCOC4)n3)cc2)CC1 [Compound 124],1 to 100 nM
18,CC(C)C(=O)N1CCO[C@H](COc2nc(-c3ccc(N(C)C)cc3)cc3nccnc23)C1 [Compound 68],100 to 1000 nM
19,CN(CC#N)CCS(=O)(=O)N1CCO[C@H](COc2nc(-c3ccc(N(C)C)cc3)cc3nccnc23)C1 [Compound 104],100 to 1000 nM
20,CC(=O)N1CCC(c2ccc(-c3cc4nccnc4c(OC[C@@H]4CN(C(C)=O)CCO4)n3)cc2)CC1 [Compound 54],100 to 1000 nM
21,CN(C)c1ccc(-c2cc3nccnc3c(O[C@@H]3CCOC3)n2)cc1 [Compound 123],1 to 100 nM
22,NS(=O)(=O)N1CCO[C@H](COc2nc(-c3ccc(N4CCC(F)(F)CC4)cc3)cc3nccnc23)C1 [Compound 29],100 to 1000 nM

row,Structure (SMILES),IC50
1,CN(C)c1ccc(-c2cc3nccnc3c(OC[C@@H]3CN(C(=O)c4ncc[nH]4)CCO3)n2)cc1 [Compound 86],100 to 1000 nM
2,CCS(=O)(=O)N1CCC(c2ccc(-c3cc4nccnc4c(OC[C@@H]4CN(C(C)=O)CCO4)n3)cc2)CC1 [Compound 23],100 to 1000 nM
3,COCCS(=O)(=O)N1CCO[C@H](COc2nc(-c3ccc(N4CCOCC4)cc3)cc3nccnc23)C1 [Compound 66],100 to 1000 nM
4,O=S(=O)(C1CC1)N1CCO[C@H](COc2nc(-c3ccc(N4CCOCC4)cc3)cc3nccnc23)C1 [Compound 83],1 to 100 nM
5,CS(=O)(=O)N1CCO[C@H](COc2nc(-c3ccc(N4CCNCC4)cc3)cc3nccnc23)C1 [Compound 14],100 to 1000 nM
6,CS(=O)(=O)N1CCO[C@H](COc2nc(-c3ccc(N4CCN(CCO)CC4)cc3)cc3nccnc23)C1 [Compound 27],100 to 1000 nM
7,CS(=O)(=O)N1CCO[C@H](COc2nc(-c3ccc(N4CCCCC4)cc3)cc3nccnc23)C1 [Compound 21],1 to 100 nM
8,CC(=O)N1CCO[C@H](COc2nc(-c3ccc(N4CCOCC4)cc3)cc3nccnc23)C1 [Compound 24],100 to 1000 nM
9,"O=C(C(F)F)N1CCO[C@H](COc2nc(-c3ccc(N4CCNCC4)cc3)cc3nccnc23)C1 [Compound 6, (S)-2,2-difluoro-1-(2-((7-(4-(piperazin-1-yl)phenyl)pyrido[4,3-b]pyrazin-5-yloxy)methyl)morpholino)ethanone]",100 to 1000 nM
10,CC(=O)N1CCO[C@H](COc2nc(-c3ccc(N4CCN(CCO)CC4)cc3)cc3nccnc23)C1 [Compound 49],100 to 1000 nM
11,O=C(C(F)F)N1CCO[C@H](COc2nc(-c3ccc(N4CCOCC4)cc3)cc3nccnc23)C1 [Compound 61],1 to 100 nM
12,CN(C)c1ccc(-c2cc3nccnc3c(OC[C@@H]3CN(C(=O)[C@H]4CC[C@H](O)CC4)CCO3)n2)cc1 [Compound 74],100 to 1000 nM
13,CCS(=O)(=O)N1CCN(c2ccc(-c3cc4nccnc4c(OC[C@@H]4CN(C(C)=O)CCO4)n3)cc2)CC1 [Compound 25],100 to 1000 nM
14,CN(C)c1ccc(-c2cc3nccnc3c(OC[C@@H]3CN(S(=O)(=O)CCN4CC[C@@H](O)C4)CCO3)n2)cc1 [Compound 102],100 to 1000 nM
15,CN1CCN(c2ccc(-c3cc4nccnc4c(OC[C@@H]4CN(C(=O)C(F)F)CCO4)n3)cc2)CC1 [Compound 16],1 to 100 nM
16,NS(=O)(=O)N1CCO[C@H](COc2nc(-c3ccc(N4CCOCC4)cc3)cc3nccnc23)C1 [Compound 62],1 to 100 nM
17,CN(C)c1ccc(-c2cc3nccnc3c(OC[C@@H]3CN(C(=O)[C@@H]4CCOC4)CCO3)n2)cc1 [Compound 72],100 to 1000 nM
18,CN1CCN(c2ccc(-c3cc4nccnc4c(OC[C@@H]4CN(S(C)(=O)=O)CCO4)n3)cc2)CC1 [Compound 13],1 to 100 nM
19,CN(C)c1ccc(-c2cc3nccnc3c(OC[C@@H]3CN(C(=O)c4cnn(C)c4)CCO3)n2)cc1 [Compound 87],100 to 1000 nM
20,CNc1ccc(-c2cc3nccnc3c(OC[C@@H]3CN(S(C)(=O)=O)CCO3)n2)cc1F [Compound 52],1 to 100 nM
21,CNC(=O)COc1ccc(-c2cc3nccnc3c(OC[C@@H]3CN(S(C)(=O)=O)CCO3)n2)cc1 [Compound 129],100 to 1000 nM
22,CNS(=O)(=O)N1CCO[C@H](COc2nc(-c3ccc(N4CCOCC4)cc3)cc3nccnc23)C1 [Compound 55],100 to 1000 nM

row,Structure (SMILES),IC50
1,CN(C)c1ccc(-c2cc3nccnc3c(OC[C@@H]3CN(C(=O)Cc4c[nH]cn4)CCO3)n2)cc1 [Compound 84],100 to 1000 nM
2,CN(C)CCS(=O)(=O)N1CCO[C@H](COc2nc(-c3ccc(N4CCOCC4)cc3)cc3nccnc23)C1 [Compound 65],100 to 1000 nM
3,Cc1cc(-c2cc3nccnc3c(OC[C@@H]3CN(S(C)(=O)=O)CCO3)n2)ccc1N(C)C [Compound 134],1 to 100 nM
4,CN1CCN(c2ccc(-c3cc4nccnc4c(O[C@@H]4CCOC4)n3)cc2)CC1 [Compound 125],1 to 100 nM
5,NC(=O)N1CCO[C@H](COc2nc(-c3ccc(N4CCOCC4)cc3)cc3nccnc23)C1 [Compound 63],100 to 1000 nM
6,"CS(=O)(=O)N1CCO[C@H](COc2nc(-c3ccc(C4CCN(CCO)CC4)cc3)cc3nccnc23)C1 [Compound 58, (S)-2-(4-(4-(5-((4-(methylsulfonyl)morpholin-2-yl)methoxy)pyrido[3,4-b]pyrazin-7-yl)phenyl)piperidin-1-yl)ethanol]",100 to 1000 nM
7,CCN(CC)c1ccc(-c2cc3nccnc3c(OC[C@@H]3CN(C(C)=O)CCO3)n2)cc1 [Compound 131],1 to 100 nM
8,CNc1ccc(-c2cc3nccnc3c(OC[C@@H]3CN(S(C)(=O)=O)CCO3)n2)cc1 [Compound 36],1 to 100 nM
9,CN(C)c1ccc(-c2cc3nccnc3c(OC[C@@H]3CN(C(=O)CC#N)CCO3)n2)cc1 [Compound 76],1 to 100 nM
10,Cn1ccc2ccc(-c3cc4nccnc4c(OC[C@@H]4CN(S(C)(=O)=O)CCO4)n3)cc21 [Compound 120],1 to 100 nM
11,CC(=O)N1CCN(c2ccc(-c3cc4nccnc4c(OC[C@@H]4CN(S(C)(=O)=O)CCO4)n3)cc2)CC1 [Compound 122],1 to 100 nM
12,COc1ccc(-c2cc3nccnc3c(OC[C@@H]3CN(S(C)(=O)=O)CCO3)n2)cc1 [Compound 38],100 to 1000 nM
13,"Cc1nccn1CCS(=O)(=O)N1CCO[C@H](COc2nc(-c3ccc(N(C)C)cc3)cc3nccnc23)C1 [Compound 101, (S)—N,N-dimethyl-4-(5-((4-(2-(2-methyl-1H-imidazol-1-yl)ethylsulfonyl)morpholin-2-yl)methoxy)pyrido[4,3-b]pyrazin-7-yl)aniline]",100 to 1000 nM
14,NS(=O)(=O)N1CCO[C@H](COc2nc(-c3ccc(N4CCCC4)cc3)cc3nccnc23)C1 [Compound 30],100 to 1000 nM
15,CN(C)c1ccc(-c2cc3nccnc3c(OC[C@@H]3CN(C(N)=O)CCO3)n2)cc1 [Compound 136],1 to 100 nM
16,CS(=O)(=O)N1CCO[C@H](COc2nc(-c3ccc(N4CCOCC4)cc3)cc3nccnc23)C1 [Compound 12],1 to 100 nM
17,CN(C)c1ccc(-c2cc3nccnc3c(OC[C@@H]3CN(S(=O)(=O)CCN4CC[C@H](O)C4)CCO3)n2)cc1 [Compound 103],100 to 1000 nM
18,COC1CCN(c2ccc(-c3cc4nccnc4c(OC[C@@H]4CN(C(C)=O)CCO4)n3)cc2)CC1 [Compound 48],100 to 1000 nM
19,CNC(=O)CS(=O)(=O)N1CCO[C@H](COc2nc(-c3ccc(N(C)C)cc3)cc3nccnc23)C1 [Compound 99],100 to 1000 nM
20,COc1cc(-c2cc3nccnc3c(OC[C@@H]3CN(S(C)(=O)=O)CCO3)n2)ccc1OCCN(C)C [Compound 126],100 to 1000 nM
